According to patent US8129349B2, “Treatment of disease by inducing cell apoptosis” (The Regents of the University of California, priority 2000, dated 2012):
pKi: −log10 of the molar value. Non-standard residues stand in square brackets, D forms with d. pT = C[C@@H](OP(=O)(O)O)[C@H](N)C(=O)O

Assays:
hepatic stellate cells = experiment: Apoptosis of stellate cells on collagen type I incubated with cell permeant peptides; format: cell-based, mouse; details: collagen type I matrix, tetrapeptides 10 μM, Chariot reagent, 4 h
Method: FIG. 5 provides results showing the direct association of C/EBPβ-Glu^217 with procaspases 1 and 8. […] Enzyme activity was measured in the absence (control) or presence of C/EBPβ peptides (200 μM) for 2 h, using a procaspases 1 (1U) (not shown) and 8 (0.2 μg) activity assay. Values are presented as the mean±one half the range of duplicates. Panel C provides results for cells cultured on a collagen type I matrix and incubated with the indicated cell permeant, purified synthetic N-acetyl, C-aldehyde C/EBPβ tetra-peptides (10 μM) or with recombinant C/EBPβ-HA peptides as indicated, together with the Chariot reagent (Active Motif) for 4 h. Control cells were incubated without peptides (P<0.05 for all peptides containing Ala^217). […]
Fluorescent labels were observed using a triple-channel fluorescence microscope. […] The number of annexin V (+) cells was determined by in vivo microscopy as known in the art (See, Rudel and Bokoch, supra) among all cells or those expressing the GFP indicator protein either co-transfected with C/EBPβ proteins, or alone. […] At least 1000 cells were analyzed per experimental point, including at least 100 cells expressing the transfected DNA (Buck and Chojkier, EMBO J., 15:1753-1765 (1996); Buck et al., (1994), supra; and Buck et al., (1999), supra). […] Nuclear morphology was analyzed by staining cells with Hoechst 33342 (Molecular Probes). […]

[1] = system: stellate cells from C/EBPβ−/− mice; experiment: Rescue from apoptosis of stellate cells from C/EBPβ−/− mice by cell permeant tetrapeptides; format: cell-based, mouse; details: C/EBPβ−/− cells activated by collagen type I, tetrapeptides 10 μM, Chariot reagent, 4 hours
caspase 8 = target: T1, caspase 8 (Homo sapiens, UniProt Q14790); experiment: In vitro self-activation of recombinant caspase 8; format: biochemical; details: peptides 200 μM, 2 h, procaspase 8 (0.2 μg), colorimetric substrate
T1 construct: 21 amino acid linker (vector-derived) (N); purchased Alexis Biochemicals 201-041-C005
T1 sequence (Q14790 217-479): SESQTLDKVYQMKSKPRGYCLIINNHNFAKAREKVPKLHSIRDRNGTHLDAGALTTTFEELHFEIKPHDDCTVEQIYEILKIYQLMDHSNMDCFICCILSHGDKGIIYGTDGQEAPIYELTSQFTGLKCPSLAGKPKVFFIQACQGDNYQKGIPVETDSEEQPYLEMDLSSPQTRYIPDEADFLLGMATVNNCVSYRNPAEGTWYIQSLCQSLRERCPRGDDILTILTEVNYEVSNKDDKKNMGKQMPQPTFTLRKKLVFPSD
Method: (§1) FIG. 5 provides results showing the direct association of C/EBPβ-Glu^217 with procaspases 1 and 8. […] Enzyme activity was measured in the absence (control) or presence of C/EBPβ peptides (200 μM) for 2 h, using a procaspases 1 (1U) (not shown) and 8 (0.2 μg) activity assay. Values are presented as the mean±one half the range of duplicates. Panel C provides results for cells cultured on a collagen type I matrix and incubated with the indicated cell permeant, purified synthetic N-acetyl, C-aldehyde C/EBPβ tetra-peptides (10 μM) or with recombinant C/EBPβ-HA peptides as indicated, together with the Chariot reagent (Active Motif) for 4 h. Control cells were incubated without peptides (P<0.05 for all peptides containing Ala^217).
(§2) FIG. 7 provides data showing that phosphorylation of rat C/EBPβ on Ser^105 prevents stellate cell apoptosis. Panel A provides results for mouse stellate cells transfected as described herein (See, FIG. 2), with mutant p90RSK or treated with lactacystin (10 μM) (closed bars), and co-transfected with CMV-rC/EBPβ-Asp^105 (1 μg each) (open bars) as indicated. Annexin-V-PE binding was determined as described for FIG. 2 (P<0.05 for rC/EBPβ-Asp^105). Panel B provides results of an annexin-V-PE assay for stellate cells from C/EBPβ^+/+ (closed circles) and rC/EBPβ-Asp^105 transgenic (open circles) mice treated with lactacystin (0-30 μM). The annexin-V-PE assay was performed 6 hours after treatment began (P<0.05 for rC/EBPβ-Asp^105 transgenic mice for 5-25 μM lactacystin). Panel C provides results for rC/EBPβ-HA constructs (0.3 μg) transfected into rat stellate cells. The expressed peptides were immunoprecipitated with anti-HA antibodies. Using a specific antibody, rCEBPβ-PSer^105 was detected only in cells that expressed wild-type rC/EBPβ. […] Reciprocal immunoprecipitations confirmed these associations. […] Enzyme activity was measured using a colorimetric substrate as described in the Examples. […]
(§3) Purified recombinant C/EBPβ peptides, expressed as known in the art (See, Descombes et al., supra; and Buck et al. (1994), supra), and purified synthetic N-acetyl, C-aldehyde tetrapeptides (200 μM) (American Peptide Company) were assayed for their ability to inhibit the activity of purified human recombinant caspases 1 (catalogue # 201-056) and 8 (catalogue # 201-041-C005) (Alexis Biochemicals). […] Caspase activity was determined by the release of the p-nitroaniline colorimetric (Alexis Biochemicals) substrate for caspase 1 (catalogue # 260-026) or 8 (catalogue # 260-045) within the linear part of the kinetic assay (Thornberry et al. (1997), supra; Stennicke and Salvesen, supra). […]

C/EBPβ+/+ stellate cells = experiment: Annexin-V-PE assay of stellate cells treated with lactacystin; format: cell-based, mouse; details: lactacystin 0-30 μM, 6 hours after treatment began
Method: as §2

caspase 1 = target: T2, caspase 1 (Homo sapiens, UniProt P29466); experiment: In vitro self-activation of recombinant caspase 1; format: biochemical; details: peptides 200 μM, 2 h, procaspase 1 (1U)
T2 construct: purchased Alexis Biochemicals 201-056
T2 sequence (P29466 120-404): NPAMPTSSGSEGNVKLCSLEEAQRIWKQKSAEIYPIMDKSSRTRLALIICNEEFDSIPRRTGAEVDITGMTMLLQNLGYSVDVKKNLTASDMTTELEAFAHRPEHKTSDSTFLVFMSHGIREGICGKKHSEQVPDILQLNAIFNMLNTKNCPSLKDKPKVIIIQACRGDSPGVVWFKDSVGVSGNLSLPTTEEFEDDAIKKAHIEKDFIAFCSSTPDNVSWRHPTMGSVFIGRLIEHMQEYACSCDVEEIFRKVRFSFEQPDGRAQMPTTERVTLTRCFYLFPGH
Method: as §1
as §3, with “Biochemicals). The sequence of caspase 8 includes Ser217 through Asp479 cloned into an expression vector containing a 21 amino acid linker at the N-terminus. Thus, the prodomain (first 220 amino acids) is essentially missing.” for “Biochemicals).”
To delineate the role of C/EBPβ on the activation of procaspases 1 and 8, the self-activation of recombinant procaspases 1 and 8 was induced in vitro (Wilson et al., supra; Margolin et al., supra; and Earnshaw et al., supra), and the effect of purified recombinant C/EBPβ peptides, produced as described previously (Descombes et al., supra; and Buck et al., (1994), supra) on this process was determined. […]

procaspase 8 = procaspase 8 (Homo sapiens, UniProt Q14790); details: cited from earlier work
procaspase 8, sequence (Q14790 whole entry): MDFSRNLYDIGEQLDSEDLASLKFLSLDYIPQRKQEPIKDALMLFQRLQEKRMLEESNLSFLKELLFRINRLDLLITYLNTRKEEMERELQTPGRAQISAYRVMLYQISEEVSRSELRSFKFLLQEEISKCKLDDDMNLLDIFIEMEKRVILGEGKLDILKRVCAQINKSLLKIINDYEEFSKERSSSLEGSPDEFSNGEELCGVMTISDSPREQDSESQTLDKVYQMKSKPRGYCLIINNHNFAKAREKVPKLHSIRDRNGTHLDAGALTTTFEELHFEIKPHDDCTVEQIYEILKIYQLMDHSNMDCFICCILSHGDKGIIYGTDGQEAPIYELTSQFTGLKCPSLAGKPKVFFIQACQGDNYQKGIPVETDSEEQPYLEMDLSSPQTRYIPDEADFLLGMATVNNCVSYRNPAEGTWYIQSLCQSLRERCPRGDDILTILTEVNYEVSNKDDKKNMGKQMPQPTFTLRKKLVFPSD

[2] = system: C/EBPβ-Ala^217 stellate cells; experiment: Apoptosis of stellate cells from C/EBPβ-Ala^217 transgenic mice, Hoechst 33342 nuclear staining; format: cell-based, mouse; details: collagen type I; IETD or transfection 1 μg
Method: FIG. 2 provides results showing increased apoptosis in hepatic stellate cells from C/EBPβ^−/− and C/EBPβ-Ala^217 transgenic mice. […] Six hours after cultivation, an annexin-V-PE binding assay was performed (P<0.05 for C/EBPβ^−/− and C/EBPβ-Ala^217). […] Apoptotic cells are indicated with arrowheads.
Fluorescent labels were observed using a triple-channel fluorescence microscope. The fluorochromes utilized were FITC and Texas red (Molecular Probes). The number of annexin V (+) cells was determined by in vivo microscopy as known in the art (See, Rudel and Bokoch, supra) among all cells or those expressing the GFP indicator protein either co-transfected with C/EBPβ proteins, or alone. These values are reported herein as a percentage of annexin V (+) for cells expressing the transfected DNA. At least 1000 cells were analyzed per experimental point, including at least 100 cells expressing the transfected DNA (Buck and Chojkier, EMBO J., 15:1753-1765 (1996); Buck et al., (1994), supra; and Buck et al., (1999), supra). […] Nuclear morphology was analyzed by staining cells with Hoechst 33342 (Molecular Probes). […]

Ac-KA^217VD-CHO
Induction of apoptosis of stellate cells (hepatic stellate cells): induced apoptosis

Ac-KKPD^105-CHO (Ac-KKPD-aldehyde; SMILES CC(=O)N[C@@H](CCCCN)C(=O)N[C@@H](CCCCN)C(=O)N1CCC[C@H]1C(=O)N[C@H](C=O)CC(=O)O) [cell permeant synthetic N-acetyl, C-aldehyde tetrapeptide, phosphorylation mimic domain of rC/EBPβ]
Rescue of stellate cells from apoptosis [1]: rescued these cells from apoptosis
Inhibition of in vitro self-activation of caspase 8 (caspase 8): inhibited the in vitro self-activation

CC(=O)N[C@@H](CSC(=O)[C@]1([C@@H](O)C(C)C)NC(=O)[C@H](C)[C@@H]1O)C(=O)O [Lactacystin, lactacystin]
Stellate cell apoptosis (C/EBPβ+/+ stellate cells): significant and rapid increase

Ac-KE^217VD-CHO (Ac-KEVD-aldehyde; SMILES CC(=O)N[C@@H](CCCCN)C(=O)N[C@@H](CCC(=O)O)C(=O)N[C@H](C(=O)N[C@H](C=O)CC(=O)O)C(C)C) [cell permeant synthetic N-acetyl, C-aldehyde tetrapeptide, phosphorylation mimic domain of C/EBPβ]
Rescue of stellate cells from apoptosis [1]: rescued these cells from apoptosis
Inhibition of in vitro self-activation of caspase 8 (caspase 8): inhibited the in vitro self-activation
Inhibition of in vitro self-activation of caspase 1 (caspase 1): inhibited the in vitro self-activation

Ac-K-Phospho-T^217VD-CHO (Ac-K[pT]VD-aldehyde; SMILES CC(=O)N[C@@H](CCCCN)C(=O)N[C@H](C(=O)N[C@H](C(=O)N[C@H](C=O)CC(=O)O)C(C)C)[C@@H](C)OP(=O)(O)O) [synthetic N-acetyl, C-aldehyde C/EBPβ 216-219-PThr^217 tetrapeptide]
Inhibition of in vitro self-activation of caspase 8 (caspase 8): inhibited the in vitro self-activation
Inhibition of in vitro self-activation of caspase 1 (caspase 1): inhibited the in vitro self-activation

DEVD-CHO
pKi (procaspase 8): 7.92

IETD [reference compound]
Block of apoptosis of C/EBPβ-Ala^217 stellate cells [2]: blocked
